Assay results: paper PMC7501730, “Discovery of novel small molecule inhibitors of S100P with in vitro anti-metastatic effects on pancreatic cancer cells” (European Journal of Medicinal Chemistry, 2020)

target: T1, S100P-RAGE interaction (Homo sapiens, UniProt P25815); assay: ELISA of S100P-RAGE binding inhibition; conditions: not given
T1 construct: His tag (N); made in house; host or cells: Escherichia coli BL21*
T1 sequence (P25815 1-95): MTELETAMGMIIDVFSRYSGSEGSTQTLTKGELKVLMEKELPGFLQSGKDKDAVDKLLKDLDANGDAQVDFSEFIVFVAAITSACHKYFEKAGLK
Procedure: The purchased computational screening hits were subjected to initial biological testing for inhibition of S100P-RAGE binding (ELISA), with cromolyn as positive control, using an adaptation of the reported ELISA for S100 family members.
Fig. 2 Effects of compounds 1–14 on S100P binding to RAGE. Human S100P (2 μM) coated wells were incubated with increasing concentrations of the compound tested, in triplicate, and exposed to human RAGE-Fc (100 nM) followed by goat anti-human secondary antibody to detect RAGE bound S100P. Data are compared to S100P/RAGE binding with no inhibitor (DMSO, 100%) and are presented as mean ± SEM; data is significant by one way ANOVA, where ∗ = p < 0.05, ∗∗ = p < 0.01 and ∗∗∗ = p < 0.001; n = 9 from 3 plates.
To generate human S100P recombinant protein, a pQE-30 ([…]) plasmid encoding S100P with N-terminal histidine tags (gifted by Dr Igor Barsukov, Liverpool University, UK), was transformed into BL21∗ competent Escherichia coli cells. Recombinant protein was purified using a HisTrap Nickel-nitrilotriacetic acid (Ni-NTA) agarose column (GE Healthcare, UK).
Purified recombinant S100P (2μM/well) in phosphate buffer (PBS; 137 mM NaCl, 2.7 mM KCl, 10 mM Na2HPO4, 1.8 mM KH2PO4, pH 7.4; supplemented with 1 mM CaCl2, 10 μM ZnCl2, and 0.5 mM MgCl2) was used for coating a 96 well plate (NunclonDelta, Fisher), and incubated overnight at 37 °C.
Following washing, S100P non-specific binding sites were blocked with 1% bovine serum albumin (BSA; Fisher, UK) in PBS for 2 h at 37 °C. Following three washes, S100P was incubated with increasing concentrations of compounds, in parallel to cromolyn and DMSO treated wells, all in triplicate. Then 30 nM recombinant human receptor for advanced glycation end products (rh/RAGE-Fc; R&D Systems) was added and incubated for 1 h at 37 °C. Controls included a negative control (S100P protein, no RAGE-Fc), a positive control (S100P protein plus RAGE), and vehicle control (0.001% DMSO in PBS) were included in each plate. After three washes in PBS, all wells were exposed to goat anti-human HRP conjugate (1:1000; Millipore) for 1 h at 37 °C in order to detect bound receptors. Subsequent to washes, wells were incubated for 20 min in the dark with 3,3′,5,5′-tetramethylbenzidene (TMB) substrate (Sigma, UK). Plates were read at 450 nm using a Multiskan Ascent spectrophotometer (Fisher Scientific, UK). All sample readings were normalized to the positive control (S100P plus RAGE-Fc). Statistical analysis was performed and graphs plotted using the GraphPad Prism software in the following way: One Way ANOVA was used to compare the effects of concentration of each compound to the effects of vehicle control (DMSO), and p values of <0.05 were considered statistically significant. A post hoc analysis was conducted using Dunnetts multiple comparisons test; results are indicated by ∗ = p < 0.05; ∗∗ = p < 0.01 and ∗∗∗ = p < 0.001.

**Q.** For COc1ccc(/C=C2/C(=O)NC(=O)N(c3ccc(Cl)c(Cl)c3)C2=O)cc1C(=O)O [Compound 3], which IC50 is on record?
**A.** The IC50 was 0.514 nM.

same assay, conditions: ELISA

**Q.** Which “concentration with significant inhibition of S100P-RAGE binding” value does the source give for O=C(O)c1cccc(N2C(=O)C3C4c5ccccc5C([N+](=O)[O-])(c5ccccc54)C3C2=O)c1 (centres unmarked) [Compound 4, 3-(9-Nitro-12,14-dioxo-9,10-dihydro-9,10-[3,4]epipyrroloanthracen-13-yl)benzoic acid] here?
**A.** The value was ≥ 10 nM.

**Q.** For O=C1C2C3c4ccccc4C([N+](=O)[O-])(c4ccccc43)C2C(=O)N1c1cccc(F)c1 (centres unmarked) [Compound 4b, 13-(3-fluorophenyl)-9-nitro-9,10-dihydro-9,10-[3,4]epipyrroloanthracene-12,14-dione], which “concentration with significant inhibition of S100P-RAGE binding” value is on record?
**A.** The value was ≤ 100 nM.

same assay, conditions: Table 1; ELISA, human S100P 2 μM coated wells, human RAGE-Fc; read-out: Estimated IC50

**Q.** With O=C(O)c1cccc(N2C(=O)C3C4c5ccccc5C([N+](=O)[O-])(c5ccccc54)C3C2=O)c1 (centres unmarked) [Compound 4, 3-(9-Nitro-12,14-dioxo-9,10-dihydro-9,10-[3,4]epipyrroloanthracen-13-yl)benzoic acid] as the compound, how does the IC50 read?
**A.** Its IC50 is 22.7 nM.

**Q.** With N#CCCn1cc(C(=O)Nc2ccc(C(=O)O)cc2)c(-c2ccccc2)n1 [Compound 5] as the compound, how does the IC50 read?
**A.** The IC50 was 0.6 nM.

**Q.** Which IC50 does the source give for Cc1ccc(-c2ccc(=O)n(CC(=O)Nc3ccc(-n4cnnn4)cc3)n2)cc1 [Compound 6] here?
**A.** Its IC50 is 0.555 nM.

**Q.** Which IC50 does the source give for O=C(Cc1cc(O)n[nH]1)N/N=C/c1c(Cl)cccc1Cl [Compound 7] here?
**A.** The IC50 was 19 nM.

**Q.** With Nc1nnn(CC(=O)N/N=C/c2cccs2)n1 [Compound 9] as the compound, how does the IC50 read?
**A.** The IC50 was 7.7 nM.

**Q.** Which IC50 does the source give for O=C(O)CNC(=O)CCCn1c(=O)[nH]c2ccccc2c1=O [Compound 10] here?
**A.** Its IC50 is 42.6 nM.

**Q.** With O=C(O)CCNC(=O)Cn1nnc2ccccc2c1=O [Compound 11] as the compound, how does the IC50 read?
**A.** The IC50 was 6.89 nM.

**Q.** With COc1ccc(-c2noc(CCCC(=O)O)n2)cc1 [Compound 12] as the compound, how does the IC50 read?
**A.** The IC50 was 264 nM.

**Q.** With Cc1nc2sc3c(c2c2nc(C(=O)NCCOCCO)nn12)C[C@@H](C)CC3 [Compound 13] as the compound, how does the IC50 read?
**A.** The IC50 was 126 nM.

**Q.** With CCCN1CCc2c(sc3c2c(NCCc2ccccc2)nc2nnnn23)C1 [Compound 14] as the compound, how does the IC50 read?
**A.** The IC50 was 77 nM.

same assay, conditions: Table 2; concentration with significant inhibition of S100P-RAGE binding; asterisks = significance by one-way ANOVA

**Q.** For O=C(O)c1cccc(N2C(=O)C3C4c5ccccc5C([N+](=O)[O-])(c5ccccc54)C3C2=O)c1 (centres unmarked) [Compound 4, 3-(9-Nitro-12,14-dioxo-9,10-dihydro-9,10-[3,4]epipyrroloanthracen-13-yl)benzoic acid], which ELISA inhibition is on record?
**A.** Its ELISA inhibition is 10 nM∗∗.

**Q.** With O=C1C2C3c4ccccc4C([N+](=O)[O-])(c4ccccc43)C2C(=O)N1c1cccc(F)c1 (centres unmarked) [Compound 4b, 13-(3-fluorophenyl)-9-nitro-9,10-dihydro-9,10-[3,4]epipyrroloanthracene-12,14-dione] as the compound, how does the ELISA inhibition read?
**A.** Its ELISA inhibition is 100 nM∗.

**Q.** Which ELISA inhibition does the source give for O=C1C2C3c4ccccc4C([N+](=O)[O-])(c4ccccc43)C2C(=O)N1c1cccc(Cl)c1 (centres unmarked) [Compound 4c, 13-(3-chlorophenyl)-9-nitro-9,10-dihydro-9,10-[3,4]epipyrroloanthracene-12,14-dione] here?
**A.** Its ELISA inhibition is “– (no significant inhibition below 1 μM)”.

**Q.** With O=C1C2C3c4ccccc4C([N+](=O)[O-])(c4ccccc43)C2C(=O)N1c1cccc([N+](=O)[O-])c1 (centres unmarked) [Compound 4d, 9-Nitro-13-(3-nitrophenyl)-9,10-dihydro-9,10-[3,4]epipyrroloanthracene-12,14-dione] as the compound, how does the ELISA inhibition read?
**A.** Its ELISA inhibition is “– (no significant inhibition below 1 μM)”.

**Q.** For O=C1C2C3c4ccccc4C([N+](=O)[O-])(c4ccccc43)C2C(=O)N1c1ccccc1 (centres unmarked) [Compound 4e, 9-Nitro-13-phenyl-9,10-dihydro-9,10-[3,4]epipyrroloanthracene-12,14-dione], which ELISA inhibition is on record?
**A.** The ELISA inhibition was “– (no significant inhibition below 1 μM)”.

**Q.** For O=C1C2C3c4ccccc4C([N+](=O)[O-])(c4ccccc43)C2C(=O)N1c1ccc(F)cc1 (centres unmarked) [Compound 4h, 13-(4-fluorophenyl)-9-nitro-9,10-dihydro-9,10-[3,4]epipyrroloanthracene-12,14-dione], which ELISA inhibition is on record?
**A.** The ELISA inhibition was “– (no significant inhibition below 1 μM)”.

**Q.** With O=C1C2C3c4ccccc4C([N+](=O)[O-])(c4ccccc43)C2C(=O)N1c1ccc(Cl)cc1 (centres unmarked) [Compound 4i, 13-(4-chlorophenyl)-9-nitro-9,10-dihydro-9,10-[3,4]epipyrroloanthracene-12,14-dione] as the compound, how does the ELISA inhibition read?
**A.** Its ELISA inhibition is “– (no significant inhibition below 1 μM)”.

**Q.** Which ELISA inhibition does the source give for O=C1C2C3c4ccccc4C([N+](=O)[O-])(c4ccccc43)C2C(=O)N1c1ccc([N+](=O)[O-])cc1 (centres unmarked) [Compound 4j, 9-Nitro-13-(4-nitrophenyl)-9,10-dihydro-9,10-[3,4]epipyrroloanthracene-12,14-dione] here?
**A.** The ELISA inhibition was “– (no significant inhibition below 1 μM)”.

**Q.** Which ELISA inhibition does the source give for O=C1C2C3c4ccccc4C([N+](=O)[O-])(c4ccccc43)C2C(=O)N1c1ccc(I)cc1 (centres unmarked) [Compound 4k, 13-(4-iodophenyl)-9-nitro-9,10-dihydro-9,10-[3,4]epipyrroloanthracene-12,14-dione] here?
**A.** Its ELISA inhibition is “– (no significant inhibition below 1 μM)”.

**Q.** Which ELISA inhibition does the source give for CC(C)(C)c1ccc(N2C(=O)C3C4c5ccccc5C([N+](=O)[O-])(c5ccccc54)C3C2=O)cc1 (centres unmarked) [Compound 4l, 13-(4-(tert-butyl)phenyl)-9-nitro-9,10-dihydro-9,10-[3,4]epipyrroloanthracene-12,14-dione] here?
**A.** Its ELISA inhibition is “- (no significant inhibition below 1 μM)”.

**Q.** With O=C(O)c1cccc(N2C(=O)C3C4c5ccccc5C(c5ccccc54)C3C2=O)c1 (centres unmarked) [Compound 4m, 3-(12,14-Dioxo-9,10-dihydro-9,10-[3,4]epipyrroloanthracen-13-yl)benzoic acid] as the compound, how does the ELISA inhibition read?
**A.** The ELISA inhibition was “– (no significant inhibition below 1 μM)”.

**Q.** Which ELISA inhibition does the source give for CCOC(=O)c1cccc(N2C(=O)C3C4c5ccccc5C(c5ccccc54)C3C2=O)c1 (centres unmarked) [Compound 4n, Ethyl 3-(12,14-dioxo-9,10-dihydro-9,10-[3,4]epipyrroloanthracen-13-yl)benzoate] here?
**A.** The ELISA inhibition was “– (no significant inhibition below 1 μM)”.

**Q.** Which ELISA inhibition does the source give for O=C1C2C3c4ccccc4C(c4ccccc43)C2C(=O)N1c1cccc(Cl)c1 (centres unmarked) [Compound 4p, 13-(3-chlorophenyl)-9,10-dihydro-9,10-[3,4]epipyrroloanthracene-12,14-dione] here?
**A.** Its ELISA inhibition is “– (no significant inhibition below 1 μM)”.

**Q.** Which ELISA inhibition does the source give for O=C1C2C3c4ccccc4C(c4ccccc43)C2C(=O)N1c1cccc([N+](=O)[O-])c1 (centres unmarked) [Compound 4q, 13-(3-nitrophenyl)-9,10-dihydro-9,10-[3,4]epipyrroloanthracene-12,14-dione] here?
**A.** Its ELISA inhibition is “– (no significant inhibition below 1 μM)”.

**Q.** Which ELISA inhibition does the source give for O=C(O)c1ccc(N2C(=O)C3C4c5ccccc5C(c5ccccc54)C3C2=O)cc1 (centres unmarked) [Compound 4s, 4-(12,14-Dioxo-9,10-dihydro-9,10-[3,4]epipyrroloanthracen-13-yl)benzoic acid] here?
**A.** The ELISA inhibition was “– (no significant inhibition below 1 μM)”.

**Q.** Which ELISA inhibition does the source give for CCOC(=O)c1ccc(N2C(=O)C3C4c5ccccc5C(c5ccccc54)C3C2=O)cc1 (centres unmarked) [Compound 4t, Ethyl 4-(12,14-dioxo-9,10-dihydro-9,10-[3,4]epipyrroloanthracen-13-yl)benzoate] here?
**A.** Its ELISA inhibition is “– (no significant inhibition below 1 μM)”.

**Q.** With O=C1C2C3c4ccccc4C(c4ccccc43)C2C(=O)N1c1ccc(Cl)cc1 (centres unmarked) [Compound 4v, 13-(4-chlorophenyl)-9,10-dihydro-9,10-[3,4]epipyrroloanthracene-12,14-dione] as the compound, how does the ELISA inhibition read?
**A.** Its ELISA inhibition is “– (no significant inhibition below 1 μM)”.

**Q.** For O=C1C2C3c4ccccc4C(c4ccccc43)C2C(=O)N1c1ccc([N+](=O)[O-])cc1 (centres unmarked) [Compound 4w, 13-(4-nitrophenyl)-9,10-dihydro-9,10-[3,4]epipyrroloanthracene-12,14-dione], which ELISA inhibition is on record?
**A.** Its ELISA inhibition is “– (no significant inhibition below 1 μM)”.

**Q.** With O=C1C2C3c4ccccc4C(c4ccccc43)C2C(=O)N1c1ccc(I)cc1 (centres unmarked) [Compound 4x, 13-(4-iodophenyl)-9,10-dihydro-9,10-[3,4]epipyrroloanthracene-12,14-dione] as the compound, how does the ELISA inhibition read?
**A.** The ELISA inhibition was “– (no significant inhibition below 1 μM)”.

**Q.** Which ELISA inhibition does the source give for CC(C)(C)c1ccc(N2C(=O)C3C4c5ccccc5C(c5ccccc54)C3C2=O)cc1 (centres unmarked) [Compound 4y, 13-(4-(tert-butyl)phenyl)-9,10-dihydro-9,10-[3,4]epipyrroloanthracene-12,14-dione] here?
**A.** The ELISA inhibition was “- (no significant inhibition below 1 μM)”.

tested on: not given; assay: not given; conditions: not given

**Q.** For O=C(O)c1cccc(N2C(=O)C3C4c5ccccc5C([N+](=O)[O-])(c5ccccc54)C3C2=O)c1 (centres unmarked) [Compound 4, 3-(9-Nitro-12,14-dioxo-9,10-dihydro-9,10-[3,4]epipyrroloanthracen-13-yl)benzoic acid], which melting point is on record?
**A.** Its melting point is 271 to 272 °C.

**Q.** Which melting point does the source give for O=C1C2C3c4ccccc4C([N+](=O)[O-])(c4ccccc43)C2C(=O)N1c1cccc(F)c1 (centres unmarked) [Compound 4b, 13-(3-fluorophenyl)-9-nitro-9,10-dihydro-9,10-[3,4]epipyrroloanthracene-12,14-dione] here?
**A.** The melting point was 241 to 243 °C.
